Seven molecules from PubChem BioAssay (NCI) can be followed below.

Some test systems named below: 786-0 renal; ACHN renal; HOP-62 NSCLC; KM12 colon; MCF7 breast; MDA-MB-435; NCI-H23 lung; SF-295 CNS; SNB-75 CNS; SR leukemia.
What all share (experiment): NCI tumour cell line growth inhibition, 48 h

The structures appear in SMILES notation.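 Growth conditions: 96-well plates. Treatment: test compound, 48 hours, 5 concentrations. Analysis: linear interpolation between bracketing concentrations; unreached endpoints set to highest concentration. Here, GI50 denotes the concentration required for 50% inhibition of growth. Definition used: TGI = concentration required for complete inhibition of growth.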 A value given as a limit tells only on which side of the number the result lay.

`Clc1cnc(Nc2ccc(OCCN3CCCC3)cc2)nc1NCc1ccco1`: the GI50 in the assay on 786-0 renal was 3.15 µM; in the assay with ACHN renal, 2.37 µM; in the assay with HOP-62 NSCLC it was 2.24 µM; in the assay on KM12 colon it was 0.643 µM; with MCF7 breast, 1.51 µM; in the assay on MDA-MB-435, 2.73 µM. Moreover, the GI50 in the assay with NCI-H23 lung was 1.84 µM; with SF-295 CNS it was 2.18 µM; with SNB-75 CNS, 1.91 µM; with SR leukemia, 1.4 µM. The TGI is 13.3 µM in the assay with 786-0 renal; 26.4 µM with ACHN renal; 6.58 µM with HOP-62 NSCLC; 10.1 µM with KM12 colon; 10.2 µM in the assay on MCF7 breast; 11.5 µM in the assay on MDA-MB-435. In addition, the TGI in the assay on NCI-H23 lung came out at 5.75 µM; in the assay on SF-295 CNS it was 6.63 µM; in the assay with SNB-75 CNS, 4.27 µM; with SR leukemia it was 6.61 µM.
For `CCOC(=O)N1CCC(N=C2CSc3nnc(-c4cc(C(F)(F)F)cc(C(F)(F)F)c4)n3N2)CC1`, the GI50 is 2.18 µM in the assay on 786-0 renal; 2.53 µM with ACHN renal; 2.17 µM in the assay on HOP-62 NSCLC; 2.04 µM with KM12 colon; 2.05 µM with MCF7 breast; 1.58 µM with MDA-MB-435. The GI50 with NCI-H23 lung is 2.66 µM; in the assay with SF-295 CNS it was 1.51 µM; with SNB-75 CNS, 1.92 µM; with SR leukemia, 2.39 µM. In addition, the TGI in the assay with 786-0 renal stood at 5.21 µM; in the assay with ACHN renal, 5.99 µM; with HOP-62 NSCLC, 4.03 µM; in the assay with KM12 colon, 3.95 µM; in the assay on MCF7 breast, 4.98 µM; in the assay on MDA-MB-435 it was 3 µM. The TGI in the assay with NCI-H23 lung amounted to 8.37 µM; in the assay with SF-295 CNS it was 3.08 µM; in the assay with SNB-75 CNS, 5.54 µM; with SR leukemia it was 6.23 µM.
As to `Cc1nnc(N/N=C/c2ccc([N+](=O)[O-])o2)[nH]c1=O`, the GI50 in the assay on 786-0 renal was 0.649 µM; in the assay on ACHN renal it was 0.603 µM; in the assay with HOP-62 NSCLC, 1.45 µM; with KM12 colon it was 0.575 µM; in the assay with MCF7 breast, 1.24 µM; in the assay on MDA-MB-435, 0.908 µM. The GI50 in the assay with NCI-H23 lung is 1.37 µM; in the assay with SF-295 CNS, 1.93 µM; in the assay on SNB-75 CNS, 1.36 µM; with SR leukemia it was 1.1 µM. In addition, the TGI in the assay with 786-0 renal is 15.3 µM; with ACHN renal, 4.58 µM; in the assay with HOP-62 NSCLC it was more than 68.2 µM; in the assay with KM12 colon it was more than 100 µM; in the assay with MCF7 breast, more than 100 µM; in the assay with MDA-MB-435, more than 100 µM. Further, the TGI in the assay with NCI-H23 lung is more than 100 µM; in the assay on SF-295 CNS, more than 100 µM; in the assay with SNB-75 CNS, 67.5 µM; with SR leukemia, more than 100 µM.
As for `C=CCc1c(O)c(C(=O)/C=C/c2ccc(Cl)cc2)c(OC)c2ccoc12`, the GI50 in the assay with 786-0 renal was 4.83 µM; in the assay on ACHN renal, 2.31 µM; in the assay with HOP-62 NSCLC, 2.31 µM; in the assay with KM12 colon, 3.72 µM; with MCF7 breast, 2.51 µM; in the assay with MDA-MB-435 it was 2.06 µM. For the same molecule, the GI50 in the assay with NCI-H23 lung is 2.78 µM; with SF-295 CNS it was 2.77 µM; in the assay with SNB-75 CNS it was 2.01 µM; with SR leukemia, 2.77 µM. Moreover, the TGI in the assay with 786-0 renal is 18.6 µM; in the assay with ACHN renal, 6.17 µM; with HOP-62 NSCLC, 5.76 µM; in the assay with KM12 colon, 13 µM; with MCF7 breast, 11.4 µM; with MDA-MB-435 it was 4.53 µM. The TGI in the assay with NCI-H23 lung was found to be 11.6 µM; in the assay with SF-295 CNS, 9.56 µM; in the assay on SNB-75 CNS, 9.11 µM; with SR leukemia, 9.11 µM.
For `CCC(=O)NC1=C(Cl)C(=O)C(NC(=O)CC)=C(Cl)C1=O`, the GI50 was 18.7 µM in the assay with 786-0 renal; 5.6 µM in the assay on ACHN renal; more than 47.7 µM with HOP-62 NSCLC; more than 43.9 µM with KM12 colon; 9.51 µM with MCF7 breast; 18.9 µM in the assay with MDA-MB-435. Further, the GI50 with NCI-H23 lung is 18.5 µM; in the assay on SF-295 CNS, more than 39.2 µM; in the assay with SNB-75 CNS, 13.7 µM; in the assay on SR leukemia it was 8.13 µM. The TGI in the assay on 786-0 renal was 33.4 µM; in the assay on ACHN renal, 10.9 µM; in the assay on HOP-62 NSCLC, more than 65.1 µM; in the assay on KM12 colon it was more than 57.8 µM; in the assay with MCF7 breast it was 28.3 µM; with MDA-MB-435 it was 33.8 µM. Further, the TGI with NCI-H23 lung was 40.8 µM; in the assay with SF-295 CNS, more than 53.8 µM; in the assay on SNB-75 CNS, 18.1 µM; in the assay with SR leukemia, more than 23.2 µM.
For the molecule `COc1cc2ncnc(Oc3ccc(NC(=O)Nc4ccc(CN5CCOCC5)c(C(F)(F)F)c4)c4ccccc34)c2cc1OC`, the GI50 with 786-0 renal was 0.831 µM; in the assay on ACHN renal, 0.303 µM; in the assay on HOP-62 NSCLC it was 2.5 µM; in the assay on KM12 colon it was 0.199 µM; in the assay on MCF7 breast it was 0.363 µM; in the assay on MDA-MB-435 it was 0.436 µM. Also, the GI50 with NCI-H23 lung is 0.785 µM; in the assay on SF-295 CNS, 1.36 µM; in the assay on SNB-75 CNS, 0.957 µM; in the assay on SR leukemia it was 0.752 µM. Also, the TGI in the assay with 786-0 renal was 6.74 µM; with ACHN renal it was 1.41 µM; in the assay on HOP-62 NSCLC it was 10.1 µM; in the assay with KM12 colon, 2.3 µM; in the assay with MCF7 breast, 10.7 µM; with MDA-MB-435, 2.83 µM. The TGI came out at 4.16 µM with NCI-H23 lung, 5.54 µM with SF-295 CNS, 12.8 µM in the assay with SNB-75 CNS and 6.02 µM in the assay with SR leukemia.
On to `OC(c1cc(C(F)(F)F)nc2c(Cl)cc(Cl)cc12)C1CCCCN1` (stereo not given), for which the TGI was more than 38.1 µM in the assay on 786-0 renal; more than 43.7 µM in the assay on ACHN renal; 18.5 µM with HOP-62 NSCLC; 19.3 µM in the assay on KM12 colon; more than 25.8 µM with MCF7 breast; 18.4 µM with MDA-MB-435. In addition, the TGI with NCI-H23 lung was 23.8 µM; in the assay on SF-295 CNS, 25.4 µM; in the assay with SNB-75 CNS, 24.4 µM; in the assay on SR leukemia, 5.32 µM.
